Consider eleven compounds from paper PMC6656724 (Communications Biology, 2019).

For series [1], the target named is T1, PfKMO (Pseudomonas fluorescens, UniProt Q84HF5, C252S/C461S).
T1 construct: made in house; host or cells: E. coli BL21 (DE3)
The series can be described thus: biochemical. Particulars: substrates of PfKMO. As to the method: saturating concentrations of the L-KYN and NADPH substrates. Data are plotted […]
(§1) consumption of NADPH at 340 nm upon addition of enzyme via a Cary 50 UV-Vis spectrophotometer (Agilent Technologies). Rates were determined from linear regression fits to the initial linear portion of the curves. All measurements were performed in triplicate. The IC50 values for inhibitors were obtained by plotting the percentage inhibition versus the inhibitor concentration and fitting to the Morrison equation16 (equation 1) using Origin 9.0 Software (OriginLab, Northampton, MA).
E + I + K!"" − E + I + K!"" ! − 4[E][I] where v0 is the enzyme activity without inhibitor, vi is the enzyme activity with ligand concentration [I], [E] is the enzyme concentration, [I] is the inhibitor concentration, K!"" is the apparent inhibition constant and IC = K!"" + [!] . If K!"" ≫ [!], IC ≈ […]
where Ki is the inhibition constant, [S] is the substrate concentration used in the assay and Km is the Michaelis-Menten constant17. […]
between Ki and Ki apparent values, as the conditions for measuring IC50 are different, Ki values can be used to compare with other reported KMO inhibitors.
Steady-state kinetic parameters for PfKMO were calculated by measuring initial rates […]
the observed rate of turnover (v) versus the varied substrate concentration were fitted to equation 2 using Origin 9.0 Software (OriginLab, Northampton, MA).
A B + K!! B + K!! A + K!!K!! where v is the initial rate of activity, Vmax is the maximum velocitie of the reaction, [A] and [B] are the substrate concentration, K!! and K!! are the Michaelis-Menten constant for different substrate and K!! is the inhibition (binding) constant of substrate A to the free enzyme while forming transitory complexes.18
Product inhibition studies were carried out by measuring reaction rates at varying […]
one substrate and varying concentrations of the other substrate. Inhibition studies with target compounds were carried out by measuring reaction rates at varying inhibitor concentrations at saturating concentrations of one substrate and varying concentrations of the other substrate. […]
were used to distinguish between different types of inhibition. The data were fitted to a straight line defined by the Lineweaver-Burke equation (equation 4), with the y intercept providing 1/Vmax and the x intercept giving -1/Km. […]

For series [2], the target named is T1, PfKMO. The series can be described thus: Stopped-flow reduction of flavin cofactor by NADPH. The series is classed as biochemical. Particulars: PfKMO with saturating ligand, 2 mM NADPH, 25 °C, anaerobic. As to the method: The reduction rate of the flavin cofactor by NADPH was measured using a stopped-flow spectrophotometer (Applied Photophysics Ltd), which was housed in an anaerobic glovebox (Belle Technology). […] The reduction of the flavin was monitored by the decrease in the absorbance of the flavin at 450 nm and transients were fitted to either double or triple exponentials.
Supplementary Figure 13. Reduction of flavin cofactor by NADPH in the presence and absence of ligands. Anaerobic mixtures of 10 µM PfKMO with or without ligand were mixed against anaerobic 2 mM NADPH on a stopped-flow spectrophotometer at 25℃. a, 10 µM PfKMO mixed with 2 mM NADPH; b, 10 µM

A short description of series [3]: Stability in mouse hepatic microsomes. Particulars: for half-life at 1 µM: mouse, microsomes.
Series [4] in a line: Kinetic solubility in PBS, pH 7.4 (2% DMSO). The series is classed as physicochemical. The following applies: PBS with 2% DMSO, pH 7.4, aqueous buffer, kinetic from dmso stock, PBS, pH 7.4 (2% DMSO).
Series [5] deals with T2, Pseudomonas fluorescens KMO (PfKMO) (Pseudomonas fluorescens, UniProt Q84HF5, C252S/C461S).
T2 construct: made in house; host or cells: E. coli BL21 (DE3)
The series can be described thus: biochemical. The text has this:
(§2) A combination of ligand- and structural-based virtual screening approaches (see supporting information for details) was used to identify an initial library of >1000 compounds that may be suitable as potential KMO inhibitors. These compounds were screened for inhibition of Pseudomonas fluorescens KMO (PfKMO) and Homo sapiens KMO (HsKMO) using high-throughput assays by monitoring the time-dependent oxidation of NADPH at 340 nm[23].
(§3) Small-molecule compounds were supplied by Biofocus (Charles River Laboratories International Inc., MA, USA), which were identified in silico as potential inhibitors (further details are described in the Supplementary Methods). Initial inhibition assays were performed against Pseudomonas fluorescens KMO (PfKMO) and Homo sapiens KMO (HsKMO) by monitoring the time-dependent absorbance change of NADPH at 340 nm. Purified KMO protein (200 nM) was incubated in 100 µL reaction buffer (20 mM potassium phosphate pH 8.0, 7 mM 2-mercaptoethanol) containing 100 μM NADPH, 100 μM L-Kyn and 20 μM potential inhibitors in 96-well plates. […] The inhibitors identified in the initial screens were validated and re-assayed individually in a 1 cm path-length quartz micro cuvette. […] Suppliers for target inhibitor compounds are listed in Supplementary Table 11.
Supplementary Figure 1. Examples of inhibition data used to generate IC50 values for selected KMO inhibitors. Fixed concentration of L -KYN (200 µM) and NADPH (100µM) were added into reaction buffer (HsKMO: 20mM potassium phosphate pH 8.0, 7 mM 2-mercaptoethanol; PfKMO: 20 mM HEPES, 10mM sodium acetate, pH 7.5, 2mM DTT). The reaction was initiated by the addition of KMO enzyme (HsKMO: 0.5µM; PfKMO: 0.1 µM). KMO activity was measured in the presence of a range of inhibitor concentrations. […]
(§4) 3.5 Steady-state enzymatic assays.
(§5) Initial screening assays and determination of IC50 values for each potential inhibitor compound were carried out using either 0.1 µM PfKMO or 0.5 µM HsKMO at fixed […]
(§6) (HsKMO: 20 mM potassium phosphate pH 8.0, 7 mM 2-mercaptoethanol; PfKMO:
(§7) 20 mM HEPES, 10 mM sodium acetate, pH 7.5, 2 mM DTT). KMO activity was measured in the presence of a range of inhibitor concentrations by monitoring the […]
consumption of NADPH at 340 nm upon addition of enzyme via a Cary 50 UV-Vis spectrophotometer (Agilent Technologies). Rates were determined from linear regression fits to the initial linear portion of the curves. All measurements were performed in triplicate. The IC50 values for inhibitors were obtained by plotting the percentage inhibition versus the inhibitor concentration and fitting to the Morrison equation16 (equation 1) using Origin 9.0 Software (OriginLab, Northampton, MA). […]

A further series deals with T3, Homo sapiens KMO (HsKMO) (Homo sapiens, UniProt O15229).
T3 construct: GST; made in house
In words: KMO inhibition assay, NADPH oxidation at 340 nm (HsKMO). The series is classed as biochemical.
Source text: as §2, §3
Supplementary Figure 1. Examples of inhibition data used to generate IC50 values for selected KMO inhibitors.
NADPH (100µM) were added into reaction buffer (HsKMO: 20mM potassium phosphate pH 8.0, 7 mM 2-mercaptoethanol; PfKMO: 20 mM HEPES, 10mM sodium acetate, pH 7.5, 2mM DTT). The reaction was initiated by the addition of KMO enzyme (HsKMO: 0.5µM; PfKMO: 0.1 µM). KMO activity was measured in the presence of a range of inhibitor concentrations. […]
as §4, §5, §6, §7, §1
E + I + K!"" − E + I + K!"" ! − 4[E][I] where v0 is the enzyme activity without inhibitor, vi is the enzyme activity with ligand

A short description of series [6]: Mouse brain penetration study. The series is classed as in vivo, female C57BL6 mice. Particulars: mouse. As for the experimental part: Inhibitor 1 (and prodrugs 1a, 1b, 1c and 1d) was dosed as a bolus solution intravenously at 1 mg free base/kg (dose volume: 5 mL/kg; dose vehicle: 5% DMSO; 95% saline (inhibitor 1) or 5% DMSO; 40% PEG400; 55% MilliQ H2O (prodrugs 1a, 1b, 1c and 1d)) to female C57BL6 mice (n = 6). At 5 min and 60 min following intravenous bolus injection of test compound, mice (n = 3/timepoint) were placed under terminal anaesthesia with isofluorane. A blood sample was taken by cardiac puncture, the […] decapitated and the brain removed. Brain weight was noted and each brain homogenised with two volumes of methanol (2 mL/g brain). Each blood sample was diluted with distilled water (1:10). Diluted blood and the brain homogenates were then stored frozen until preparation and analysis by UPLC-MS/MS. For each mouse at each timepoint for 1, the concentration in brain (ng/g) was divided by the concentration in blood (ng/mL) to give a brain:blood ratio. The mean value obtained was quoted. For prodrugs 1a to 1d, only the concentration of 1 in blood (ng/mL) and brain (ng/g) was reported.
A rapid and sensitive ultra-performance chromatography/tandem mass spectrometry (UPLC-MS/MS) method was developed and validated for the determination of inhibitor 1 and prodrug 1b (rat only). Chromatographic analysis was conducted on a Waters Acquity™ UPLC system. Chromatographic separation was performed with an Acquity™ UPLC BEH C18 column (50 × 2.1 mm, 1.7 µm, 130Å; Waters Corp.) maintained at 40 °C in a column oven. The mobile phase consisted of water with 0.01% formic acid and ACN with 0.01 % formic acid and it was delivered at a flow rate of 0.6 mL/min under gradient eluent conditions within an analysis cycle time of 3 min. The mass detection was conducted on a Waters Xevo™ TQs mass spectrometer equipped with a ScanWave™ technology. Quantitation of the analyte was performed in electrospray positive ionisation mode (ESI^+) using multiple reaction monitoring. The optimised fragmentation transition was m/z = 270.17 → 196.19 (mouse) or m/z = 270.17 → 223.76 (rat) for inhibitor 1 and m/z = 297.83 → 195.74 for prodrug 1b (rat).
Sample extraction for blood and brain homogenate was by protein precipitation (1:3 or 1:6) using ACN containing suitable internal standard. Extracts were vortexed followed by centrifugation (2800 rpm for 10 min). An aliquot of each supernatant was then diluted two-fold in distilled water ready for analysis by UPLC-MS/MS.
The weighted 1/x^2 calibration line was linear in the dynamic range of 1–5000 ng/mL for inhibitor 1 and 1–1000 ng/mL for prodrug 1b with a correlation coefficient (r^2) > 0.99 (inhibitor 1) or 0.98 (prodrug 1b). The quality control samples (QC) were prepared by using the same spiking scheme as the calibration samples and up to four different target concentration brain levels: 2 ng/mL (LQC), 40 ng/mL (MQC), 100 ng/mL (HQC) and 2000 ng/mL. Data collection, peak integration and calculations were performed using MassLynx software, version 2.1.

Setting [7] is: Half-life Mean, mouse hepatic microsomes.
[8] abbreviates: Half-life n=1, mouse hepatic microsomes.
[9] abbreviates: Half-life n=2, mouse hepatic microsomes.
Setting [10] is: 1 mg/kg i.v., 5 min, single mice, analyte inhibitor 1 (also after prodrugs) or 1h.

Values after ≈ are worked out from the molar mass of the structure shown. Where two headings read alike, the source gives them in different places.

T3 sequence (O15229 whole entry): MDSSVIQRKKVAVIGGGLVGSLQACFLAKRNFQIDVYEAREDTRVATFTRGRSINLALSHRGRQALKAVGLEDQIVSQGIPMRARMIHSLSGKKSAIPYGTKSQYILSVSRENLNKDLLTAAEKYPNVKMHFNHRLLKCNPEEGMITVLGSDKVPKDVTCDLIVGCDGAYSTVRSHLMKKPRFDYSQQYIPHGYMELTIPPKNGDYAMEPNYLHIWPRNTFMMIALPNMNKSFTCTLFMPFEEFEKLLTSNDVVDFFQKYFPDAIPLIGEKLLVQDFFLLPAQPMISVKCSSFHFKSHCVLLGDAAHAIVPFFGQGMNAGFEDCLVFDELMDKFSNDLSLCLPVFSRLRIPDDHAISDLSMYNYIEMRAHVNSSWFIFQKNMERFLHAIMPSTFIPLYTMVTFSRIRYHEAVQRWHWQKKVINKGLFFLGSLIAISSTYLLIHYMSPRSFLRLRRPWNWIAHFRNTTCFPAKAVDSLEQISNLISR
T2 sequence (Q84HF5 whole entry C252S/C461S): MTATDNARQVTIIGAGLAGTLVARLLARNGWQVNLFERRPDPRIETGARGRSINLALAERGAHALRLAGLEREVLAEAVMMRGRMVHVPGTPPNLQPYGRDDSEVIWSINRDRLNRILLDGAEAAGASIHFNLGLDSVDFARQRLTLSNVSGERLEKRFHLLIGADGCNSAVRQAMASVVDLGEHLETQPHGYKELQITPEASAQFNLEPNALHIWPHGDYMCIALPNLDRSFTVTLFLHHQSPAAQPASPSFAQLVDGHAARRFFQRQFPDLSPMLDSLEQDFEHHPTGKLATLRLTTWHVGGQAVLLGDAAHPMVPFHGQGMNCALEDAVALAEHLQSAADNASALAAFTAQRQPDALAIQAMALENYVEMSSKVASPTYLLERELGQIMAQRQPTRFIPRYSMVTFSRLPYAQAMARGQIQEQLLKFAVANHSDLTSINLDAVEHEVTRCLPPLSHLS
T1 sequence (Q84HF5 whole entry C252S/C461S): as above

For the compound `Nc1ccccc1C(=O)C[C@H](N)C(=O)O` [L-KYN, reference compound], the Km (usually the substrate concentration at which the rate is half of its maximum) on PfKMO [1] worked out at 12.1 ± 1.4 µM. Besides, the “Reduction rate of flavin cofactor” value on PfKMO [2] came to 339 ± 16.6 s⁻¹.
As to `COc1ccc2c(c1)[C@]13CCCC[C@@H]1[C@H](C2)N(C)CC3` [Dextromethorphan, reference compound], in series [3] (mouse hepatic microsomes), the Mean intrinsic clearance is recorded as 97 µL/min/mg microsome protein. The half-life (commonly the time in which the quantity being followed falls by half) at 1 µM in series [3] (setting [7]) stood at 29 min; in series [3] (setting [8]), 28 min; in series [3] (setting [9]), 29 min.
Regarding `NC(=O)C1=CN([C@@H]2O[C@H](COP(=O)(O)OP(=O)(O)OC[C@H]3O[C@@H](n4cnc5c(N)ncnc54)[C@H](OP(=O)(O)O)[C@@H]3O)[C@@H](O)[C@H]2O)C=CC1` [NADPH, reference compound], the Michaelis constant (Km) at PfKMO [1] (read-out: Km) came to 16.9 ± 1.5 µM.
Turning to `COC(=O)[C@H]1[C@H]2C[C@@H]3c4[nH]c5cc(OC)ccc5c4CCN3C[C@H]2C[C@@H](OC(=O)c2cc(OC)c(OC)c(OC)c2)[C@@H]1OC` [Reserpine, reference compound], the solubility at 2 h in series [4] (read-out: Solubility Mean), in series [4] (read-out: Solubility n=1) and in series [4] (read-out: Solubility n=2) was 9 µM (≈ 5.48 µg/mL) throughout.
Take `Cc1ncc2n1-c1ccc(Cl)cc1C(c1ccccc1F)=NC2` [Midazolam, reference compound]: the Mean intrinsic clearance in series [3] (mouse hepatic microsomes) is > 554 µL/min/mg microsome protein. Besides, the half-life at 1 µM in series [3] (setting [7]), in series [3] (setting [8]) and in series [3] (setting [9]) was less than 5 min each time.
For the compound `O=C(O)[C@@H]1C[C@H]1C(=O)c1ccc(Cl)c(Cl)c1` [UPF648, reference compound], the IC50 (usually the concentration that inhibits the measured activity by half) was 0.12 ± 0.03 µM in series [5] and 0.06 µM on Homo sapiens KMO (HsKMO).
`Cc1cc2c(c(C)c1Cl)N(CC(=O)OC(C)(C)C)C(=O)CO2` [1d]: the IC50 was roughly 200 µM in series [5] and greater than 300 µM at Homo sapiens KMO (HsKMO). Further, in series [6] (setting [10]), the In blood entry was “≤ LLoQ”. The In brain result in series [6] (setting [10]) is on record as “≤ LLoQ”; in series [6] (1 mg/kg i.v., 60 min, single mice, analyte inhibitor 1 (also after prodrugs) or 1h), “≤ LLoQ”. For the same compound, the “Release of 1 in blood and brain” value in series [6] (prodrug 1 mg/kg i.v. bolus) is given as “undetectable”.
On to `O=C(Nc1ccccc1C(=O)O)c1ccc(-c2ccc(Cl)cc2Cl)o1` [compound 10, 2-(5-(2,4-dichlorophenyl)furan-2-carboxamido)benzoic acid], for which the IC50 is 3 ± 0.1 µM in series [5] and 1.6 µM on Homo sapiens KMO (HsKMO).
As to `CNC(=O)CN1C(=O)COc2cc(C)c(Cl)c(C)c21` [1f], the IC50 (in series [5]; at Homo sapiens KMO (HsKMO)) was greater than 300 µM in each case.
In the case of `O=C(O)c1ccc(-c2ccc(Cl)cc2Cl)o1` [compound 16, 5-(2,4-dichlorophenyl) furan-2-carboxylic acid], the IC50 was 70.2 ± 2.8 µM in series [5] and 207 µM on Homo sapiens KMO (HsKMO).
In the case of `O=C(O)c1ccc(-c2ccc(Br)c(Cl)c2)o1` [compound 19, 5-(4-bromo-3-chlorophenyl) furan-2-carboxylic acid], the results for the IC50 (in series [5]; on Homo sapiens KMO (HsKMO)) were 0.7 ± 0.01 µM and 54.2 µM, respectively.
